According to US10149876B2, “Tripterygium wilfordii extracts to overcome chemotherapy resistance” (WESTERN UNIVERSITY OF HEALTH SCIENCES, priority 2012, dated 2018):
Several values for one entry are separate records, joined by “and”; a condition that tells them apart may be missing. Identical values can stand only once. Like-named read-outs stand apart in the source and are kept apart here.

Key:
K562 cells = assay: SRB cell viability assay, daunorubicin-sensitive K562 cells; type: cell-based, human; settings: Homo sapiens, K562, read-out: IC50 of drug when cells treated with drug only
Procedure: Cell culture of the above cell lines was performed as described in Example 2, except that 5,000, rather than 3,000 cells were plated per well for the K562, K562/Dox, BT474, SkBr3 lines.
Table 17 also contains the serially-diluted concentrations of drugs that each cell line was tested against.
Table 36 reports the cell viability data relating to pre-treatment with LTG-E prior to daunorubicin treatment. Table 37 reports control data obtained from cells that were not pre-treated with LGT-E prior to daunorubicin treatment. FIG. 15 summarizes the data of Tables 36 and 37 in a graphical format.

K562/Dox cells = assay: SRB cell viability assay, daunorubicin-resistant K562/Dox cells; type: cell-based, human; settings: Homo sapiens

COc1cccc2c1C(=O)c1c(O)c3c(c(O)c1C2=O)C[C@@](O)(C(C)=O)C[C@@H]3O[C@H]1C[C@H](N)[C@H](O)[C@H](C)O1 [daunorubicin]
IC50 (K562 cells): 1.05 µM and 0.55 µg/mL
IC50 (K562/Dox cells; K562, read-out: IC50 of drug when cells pre-treated with Chemosensitizing Agent before drug treatment): 6.53 µM and 3.45 µg/mL
IC50 (K562/Dox cells; K562, read-out: IC50 of drug when cells treated with drug only): 32.6 µM and 17.2 µg/mL
